According to patent US20110086759A1, “CHEMICAL COMPOUNDS” (SYNGENTA CROP PROTECTION, INC., priority 2007, published 2011):

Legend:
Assay type in all cases: in vivo
[1] = test system: Alopecurus myosuroides (ALOMY); experiment: Pre-emergence biological efficacy, glasshouse pot test; conditions: 312 h, evaluated after 13 days (100=total damage; 0=no damage), read-out: Percentage damage ALOMY; for pest or weed control at 1000 g/ha: pre-emergence, 1,000 g/ha
How it was run: (§1)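 Glasshouse pot test: spray on soil one day after sowing, 1000 or 250 g/ha. Conditions 24/16 °C day/night, 14 h light, 65% humidity. Plant damage scored 0–100 at 13 days.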

Setaria faberi (SETFA) [2] = experiment: as above; conditions: 312 h, evaluated after 13 days (100=total damage; 0=no damage), read-out: Percentage damage SETFA; for pest or weed control at 1000 g/ha: pre-emergence, 1,000 g/ha
How it was run: as §1

[3] = test system: Ipomea hederaceae (IPOHE); experiment: as above; conditions: Ipomoea hederacea, 312 h, evaluated after 13 days (100=total damage; 0=no damage), read-out: Percentage damage IPOHE; for pest or weed control at 1000 g/ha: pre-emergence, 1,000 g/ha
How it was run: as §1

[4] = test system: Amaranthus retoflexus (AMARE); experiment: as above; conditions: Amaranthus retroflexus, 312 h, evaluated after 13 days (100=total damage; 0=no damage), read-out: Percentage damage AMARE; for pest or weed control at 1000 g/ha: pre-emergence, 1,000 g/ha
How it was run: as §1

[5] = test system: Echinochloa crus-galli (ECHCG); experiment: as above; conditions: 312 h, evaluated after 13 days (100=total damage; 0=no damage), read-out: Percentage damage ECHCG; for pest or weed control at 1000 g/ha: pre-emergence, 1,000 g/ha
How it was run: as §1

Solanum nigrum (SOLNI) [6] = experiment: as above; conditions: 312 h, evaluated after 13 days (100=total damage; 0=no damage), read-out: Percentage damage SOLNI; for pest or weed control at 1000 g/ha: pre-emergence, 1,000 g/ha
How it was run: as §1

[7] = test system: Alopecurus myosuroides (ALOMY); experiment: Post-emergence biological efficacy, glasshouse pot test; conditions: 312 h, evaluated after 13 days (100=total damage; 0=no damage), read-out: Percentage damage caused to weed species, ALOMY; for pest or weed control at 1000 g/ha: post-emergence, 1,000 g/ha
How it was run: (§2)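 Pot-grown weeds were sprayed 8 days after sowing with test compound in acetone/water (50:50) with 0.5% Tween 20 at 1000 or 250 g/ha. Glasshouse at 24/16° C day/night, 14 h light, 65% humidity. Damage scored 0-100 (100 = total damage) after 13 days.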

Setaria faberi (SETFA) [8] = experiment: as above; conditions: 312 h, evaluated after 13 days (100=total damage; 0=no damage), read-out: Percentage damage caused to weed species, SETFA; for pest or weed control at 1000 g/ha: post-emergence, 1,000 g/ha
How it was run: as §2

[9] = test system: Ipomea hederaceae (IPOHE); experiment: as above; conditions: Ipomoea hederacea, 312 h, evaluated after 13 days (100=total damage; 0=no damage), read-out: Percentage damage caused to weed species, IPOHE; for pest or weed control at 1000 g/ha: post-emergence, 1,000 g/ha
How it was run: as §2

[10] = test system: Amaranthus retoflexus (AMARE); experiment: as above; conditions: Amaranthus retroflexus, 312 h, evaluated after 13 days (100=total damage; 0=no damage), read-out: Percentage damage caused to weed species, AMARE; for pest or weed control at 1000 g/ha: post-emergence, 1,000 g/ha
How it was run: as §2

[11] = test system: Echinochloa crus-galli (ECHCG); experiment: as above; conditions: 312 h, evaluated after 13 days (100=total damage; 0=no damage), read-out: Percentage damage caused to weed species, ECHCG; for pest or weed control at 1000 g/ha: post-emergence, 1,000 g/ha
How it was run: as §2

Solanum nigrum (SOLNI) [12] = experiment: as above; conditions: 312 h, evaluated after 13 days (100=total damage; 0=no damage), read-out: Percentage damage caused to weed species, SOLNI; for pest or weed control at 1000 g/ha: post-emergence, 1,000 g/ha
How it was run: as §2

Row | SMILES | pest or weed control at 1000 g/ha [1] [%] | pest or weed control at 1000 g/ha (Setaria faberi (SETFA) [2]) [%] | pest or weed control at 1000 g/ha [3] [%] | pest or weed control at 1000 g/ha [4] [%] | pest or weed control at 1000 g/ha [5] [%] | pest or weed control at 1000 g/ha (Solanum nigrum (SOLNI) [6]) [%] | pest or weed control at 1000 g/ha [7] [%] | pest or weed control at 1000 g/ha (Setaria faberi (SETFA) [8]) [%] | pest or weed control at 1000 g/ha [9] [%] | pest or weed control at 1000 g/ha [10] [%] | pest or weed control at 1000 g/ha [11] [%] | pest or weed control at 1000 g/ha (Solanum nigrum (SOLNI) [12]) [%] | also measured
1 | COC(=O)c1nc(C2CC2)nc(NC(C)c2cccc(C(F)(F)F)c2)c1Cl (stereo not drawn) [Compound 4-179, 5-Chloro-2-cyclopropyl-6-methoxycarbonyl-4-[1-(3-trifluoro-methylphenyl)ethyl-amino]pyrimidine] |  |  |  |  |  |  |  |  |  |  |  |  | pest or weed control at 250 g/ha ([1]; pre-emergence, 250 g/ha): 0%; pest or weed control at 250 g/ha (Setaria faberi (SETFA) [2]; pre-emergence, 250 g/ha): 0%; pest or weed control at 250 g/ha ([3]; pre-emergence, 250 g/ha): 0%; pest or weed control at 250 g/ha ([4]; pre-emergence, 250 g/ha): 50%; pest or weed control at 250 g/ha ([5]; pre-emergence, 250 g/ha): 0%; pest or weed control at 250 g/ha (Solanum nigrum (SOLNI) [6]; pre-emergence, 250 g/ha): 0%; pest or weed control at 250 g/ha ([7]; post-emergence, 250 g/ha): 30%; pest or weed control at 250 g/ha (Setaria faberi (SETFA) [8]; post-emergence, 250 g/ha): 50%; pest or weed control at 250 g/ha ([9]; post-emergence, 250 g/ha): 60%; pest or weed control at 250 g/ha ([10]; post-emergence, 250 g/ha): 70%; pest or weed control at 250 g/ha ([11]; post-emergence, 250 g/ha): 40%; pest or weed control at 250 g/ha (Solanum nigrum (SOLNI) [12]; post-emergence, 250 g/ha): 80%
2 | COC(=O)c1nc(C2CC2)nc(NC(C)c2ccc(C)cc2C)c1Cl (stereo not drawn) [Compound 4-183, 5-Chloro-2-cyclopropyl-4-[1-(2,4-dimethyl-phenyl)ethylamino]-6-methoxycarbonyl-pyrimidine] | 0 | 0 | 20 | 30 | 0 | 0 | 10 | 20 | 60 | 70 | 10 | 40 | 
3 | COC(=O)c1nc(C2CC2)nc(NC(C)(C)c2ccccc2)c1Cl [Compound 4-189, 5-Chloro-2-cyclopropyl-6-methoxycarbonyl-4-(1-methyl-1-phenyl-ethylamino)-pyrimidine] | 20 | 0 | 40 | 60 | 0 | 50 | 20 | 50 | 100 | 100 | 0 | 90 | 
4 | CCC(Nc1nc(C2CC2)nc(C(=O)OC)c1Cl)c1ccccc1 (stereo not drawn) [Compound 4-194, 5-Chloro-2-cyclopropyl-6-methoxycarbonyl-4-(1-phenylpropyl-amino)pyrimidine] | 10 | 10 | 90 | 100 | 20 | 60 | 10 | 80 | 100 | 100 | 60 | 100 | 
5 | C=CC(Nc1nc(C2CC2)nc(C(=O)OC)c1Cl)c1ccccc1 (stereo not drawn) [Compound 4-197, 5-Chloro-2-cyclopropyl-6-methoxycarbonyl-4-(1-phenylprop-2-en-1-yl-amino)-pyrimidine] | 20 | 20 | 100 | 90 | 40 | 90 | 40 | 80 | 100 | 100 | 70 | 90 | 
6 | C=CCC(Nc1nc(C2CC2)nc(C(=O)OC)c1Cl)c1ccc(Cl)cc1 (stereo not drawn) [Compound 4-198, 5-Chloro-4-[1-(4-chlorophenyl)but-3-en-1-yl-amino]-2-cyclopropyl-6-methoxycarbonyl-pyrimidine] | 0 | 0 | 70 | 30 | 0 | 20 | 20 | 40 | 60 | 40 | 0 | 30 | 
7 | C=CCC(Nc1nc(C2CC2)nc(C(=O)OC)c1Cl)c1ccccn1 (stereo not drawn) [Compound 4-199, 5-Chloro-2-cyclopropyl-6-methoxycarbonyl-4-[1-(pyrid-2-yl)-but-3-enylamino]-pyrimidine] | 0 | 0 | 40 | 0 | 0 | 0 | 0 | 0 | 80 | 50 | 0 | 60 | 
8 | COC(=O)c1nc(C2CC2)nc(NC(c2ccc(Cl)cc2)C2CC2)c1Cl (stereo not drawn) [Compound 4-200, 5-Chloro-4-[1-(4-chlorophenyl)-1-(cyclopropyl)methyl-amino]-2-cyclopropyl-6-methoxycarbonyl-pyrimidine] | 0 | 0 | 50 | 20 | 0 | 0 | 20 | 40 | 90 | 100 | 20 | 80 | 
9 | COC(=O)c1nc(C2CC2)nc(NC(CO)C2CCOC2)c1Cl (stereo not drawn) [Compound 4-201, 5-Chloro-2-cyclopropyl-4-(2-hydroxy-1-tetrahydrofuran-3-yl-ethylamino)-6-methoxycarbonyl-pyrimidine] | 0 | 10 | 100 | 100 | 20 | 100 | 10 | 20 | 60 | 100 | 10 | 90 | 
